A word on the IC50: it is the midpoint of a concentration-inhibition curve. For orientation: inhibition means how much of the control response was suppressed.

This is an account of results in ChEMBL document CHEMBL1149522, “Synthesis of 3H-spiro[benzofuran-2,1'-cyclohexane] derivatives from naturally occurring filifolinol and their classical complement pathway inhibitory activity” (Bioorg Med Chem Lett, 2006).

Several values for one entry are separate records, joined by “and”; a condition that tells them apart may be missing. Equal entries are not always repeated.

One assay deals with RBCs. The experiment in a line: Inhibition of complement-induced hemolysis in sensitized sheep erythrocytes. To be noted: Ovis aries, Erythrocyte. Type of assay: functional, cell-based.
Take `CC(=O)c1c(O)ccc2c1C[C@@]1(O2)[C@@H](C)CC[C@@H](O)C1(C)C`: the IC50 is 1.07 mM and 320 µg/mL.
The same measure, in the same setting: in the case of `C[C@H]1CC[C@@H](O)C(C)(C)[C@@]12Cc1cc(C(=O)[O-])ccc1O2.[Na+]` it was 2 mM and 580 µg/mL; in that of `C[C@H]1CC[C@@H](O)C(C)(C)[C@@]12Cc1cc(C(=O)[O-])cc(C#N)c1O2.[Na+]`, 1.32 mM and 415 µg/mL; in that of `COc1ccc(C(=O)[O-])c2c1CC1(CCCCC1)O2.[Na+]`, 1.3 mM and 341 µg/mL.
Same read-out and setting: the figure for `C[C@H]1CC[C@@H](O)C(C)(C)[C@@]12Cc1cc(O)ccc1O2` is 455 µM and 260 µg/mL; for `C[C@]1(O)CC[C@@H]([C@]2(C)Cc3c(O)ccc(C(=O)[O-])c3O2)C[C@H]1O.[Na+]` it is 1.6 mM and 515 µg/mL; for `COc1cc(C(=O)[O-])cc2c1CC1(CCCCC1)O2.[Na+]` it is 820 µM and 214 µg/mL.
Still for that read-out and setting: in the case of `COc1cc(C(=O)[O-])c(C=O)c2c1CC1(CCCCC1)O2.[Na+]` it was 160 µM and 44 µg/mL; in that of `C[C@H]1CC[C@@H](O)C(C)(C)[C@@]12Cc1cc(C(=O)[O-])cc(Br)c1O2.[Na+]`, 950 µM and 350 µg/mL; in that of `C[C@@H]1CCC2C(C)(C)[C@H](O)[C@H](O)C[C@]2(C)[C@@]12Cc1c(O)cc(C(=O)[O-])c(C=O)c1O2.[Na+]` (stereo partly specified), 570 µM and 238 µg/mL.

The next assay deals with RBCs. Kind of assay: Inhibition of complement-induced hemolysis in sensitized sheep erythrocytes at 253 ug/ml. Type of assay: functional. Conditions: Ovis aries, Erythrocyte.
Turning to `CC(=O)c1cc2c(cc1O)C[C@@]1(O2)[C@@H](C)CC[C@@H](O)C1(C)C`, the inhibition at 253 µg/mL was found to be 17%.
